Laboratory results reported in ChEMBL document CHEMBL1144632, “The rational design of inhibitors of nitric oxide formation by inducible nitric oxide synthase” (Bioorg Med Chem Lett, 2007).
Calls of active or inactive are those of the source. The rule behind the calls is not given here.

Each molecule was assayed against T1, Nitric oxide synthase 3 (Homo sapiens) (UniProt P29474) (assay: Inhibition of eNOS).
T1 sequence (whole entry): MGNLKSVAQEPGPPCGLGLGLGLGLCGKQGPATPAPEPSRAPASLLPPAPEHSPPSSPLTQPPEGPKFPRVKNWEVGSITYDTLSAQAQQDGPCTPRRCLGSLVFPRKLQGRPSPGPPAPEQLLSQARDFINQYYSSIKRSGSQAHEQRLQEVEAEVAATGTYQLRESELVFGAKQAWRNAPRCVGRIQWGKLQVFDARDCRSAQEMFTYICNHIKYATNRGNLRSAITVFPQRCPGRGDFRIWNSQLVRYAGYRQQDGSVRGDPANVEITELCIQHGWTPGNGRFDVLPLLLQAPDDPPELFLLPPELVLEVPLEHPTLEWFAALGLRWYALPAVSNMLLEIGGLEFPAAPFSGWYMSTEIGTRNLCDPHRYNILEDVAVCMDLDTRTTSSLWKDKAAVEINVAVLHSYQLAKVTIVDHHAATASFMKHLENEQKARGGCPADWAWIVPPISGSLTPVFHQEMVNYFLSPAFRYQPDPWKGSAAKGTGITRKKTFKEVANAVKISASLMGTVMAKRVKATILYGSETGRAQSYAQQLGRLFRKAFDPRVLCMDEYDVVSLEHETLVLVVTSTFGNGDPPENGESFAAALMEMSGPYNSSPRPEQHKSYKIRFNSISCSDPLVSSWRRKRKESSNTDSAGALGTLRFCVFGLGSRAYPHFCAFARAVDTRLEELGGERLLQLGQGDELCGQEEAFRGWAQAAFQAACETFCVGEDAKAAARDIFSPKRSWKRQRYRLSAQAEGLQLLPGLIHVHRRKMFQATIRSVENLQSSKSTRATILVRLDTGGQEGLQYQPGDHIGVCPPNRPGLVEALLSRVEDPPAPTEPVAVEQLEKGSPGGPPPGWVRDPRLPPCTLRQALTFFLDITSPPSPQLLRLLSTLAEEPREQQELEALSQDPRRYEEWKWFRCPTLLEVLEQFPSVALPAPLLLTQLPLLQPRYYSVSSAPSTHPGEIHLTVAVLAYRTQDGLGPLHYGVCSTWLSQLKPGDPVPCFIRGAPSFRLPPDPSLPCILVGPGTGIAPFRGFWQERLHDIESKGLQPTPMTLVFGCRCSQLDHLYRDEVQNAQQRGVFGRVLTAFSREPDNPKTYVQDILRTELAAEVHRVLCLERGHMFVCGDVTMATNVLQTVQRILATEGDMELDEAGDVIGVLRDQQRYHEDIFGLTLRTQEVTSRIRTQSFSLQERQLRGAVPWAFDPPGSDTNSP

Activity	SMILES
inactive	c1cn(-c2ccc(Oc3nccc(Oc4ccc5c(c4)OCO5)n3)cc2)cn1

What follows are molecules tested against Nitric oxide synthase 1 (Homo sapiens) (UniProt P29475) (assay: Inhibition of bNOS).
Sequence of Nitric oxide synthase 1 (Homo sapiens) (P29475 whole entry): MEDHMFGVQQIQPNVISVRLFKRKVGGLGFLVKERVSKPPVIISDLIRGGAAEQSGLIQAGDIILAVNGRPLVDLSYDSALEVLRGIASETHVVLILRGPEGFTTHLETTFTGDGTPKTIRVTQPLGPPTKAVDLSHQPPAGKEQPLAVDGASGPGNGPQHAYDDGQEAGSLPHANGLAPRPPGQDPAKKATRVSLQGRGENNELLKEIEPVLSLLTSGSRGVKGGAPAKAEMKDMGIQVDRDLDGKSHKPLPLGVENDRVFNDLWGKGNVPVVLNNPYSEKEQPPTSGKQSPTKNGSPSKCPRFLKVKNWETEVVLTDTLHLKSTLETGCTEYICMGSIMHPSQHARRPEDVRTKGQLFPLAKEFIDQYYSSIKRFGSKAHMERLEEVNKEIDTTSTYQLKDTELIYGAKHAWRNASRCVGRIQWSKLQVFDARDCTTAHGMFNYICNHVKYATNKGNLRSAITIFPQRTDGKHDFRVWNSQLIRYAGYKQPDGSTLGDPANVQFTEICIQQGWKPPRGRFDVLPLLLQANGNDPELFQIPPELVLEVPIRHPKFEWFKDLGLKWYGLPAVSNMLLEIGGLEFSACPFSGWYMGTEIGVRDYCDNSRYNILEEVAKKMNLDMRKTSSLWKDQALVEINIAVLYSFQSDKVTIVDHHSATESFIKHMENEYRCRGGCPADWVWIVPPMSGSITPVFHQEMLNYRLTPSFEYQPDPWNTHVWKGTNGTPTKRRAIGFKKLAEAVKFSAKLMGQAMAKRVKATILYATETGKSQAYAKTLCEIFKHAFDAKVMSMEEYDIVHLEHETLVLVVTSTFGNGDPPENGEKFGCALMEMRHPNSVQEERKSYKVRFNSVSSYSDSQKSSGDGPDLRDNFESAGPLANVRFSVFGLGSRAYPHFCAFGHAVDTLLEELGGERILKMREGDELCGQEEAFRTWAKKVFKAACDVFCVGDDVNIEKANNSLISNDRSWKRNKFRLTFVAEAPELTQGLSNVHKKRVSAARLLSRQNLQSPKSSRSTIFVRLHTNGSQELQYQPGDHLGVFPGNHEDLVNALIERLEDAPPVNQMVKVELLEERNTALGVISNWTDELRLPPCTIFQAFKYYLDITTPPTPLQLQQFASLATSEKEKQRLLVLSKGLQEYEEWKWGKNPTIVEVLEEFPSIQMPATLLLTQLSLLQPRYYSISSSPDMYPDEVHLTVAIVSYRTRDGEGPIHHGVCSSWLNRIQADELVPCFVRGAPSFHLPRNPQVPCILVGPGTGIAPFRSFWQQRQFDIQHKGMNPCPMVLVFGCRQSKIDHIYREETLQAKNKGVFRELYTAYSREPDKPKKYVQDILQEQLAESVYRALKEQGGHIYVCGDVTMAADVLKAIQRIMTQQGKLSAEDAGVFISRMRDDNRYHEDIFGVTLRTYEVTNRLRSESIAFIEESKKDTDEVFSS

Activity	SMILES
inactive	c1cn(-c2ccc(Oc3nccc(Oc4ccc5c(c4)OCO5)n3)cc2)cn1

Each molecule was assayed against Nitric oxide synthase, inducible (Homo sapiens, UniProt P35228) (assay: Inhibition of iNOS in human A172 cells after 18 to 24 hrs).
Format: cell-based, A 172

Sequence of Nitric oxide synthase, inducible (P35228 whole entry): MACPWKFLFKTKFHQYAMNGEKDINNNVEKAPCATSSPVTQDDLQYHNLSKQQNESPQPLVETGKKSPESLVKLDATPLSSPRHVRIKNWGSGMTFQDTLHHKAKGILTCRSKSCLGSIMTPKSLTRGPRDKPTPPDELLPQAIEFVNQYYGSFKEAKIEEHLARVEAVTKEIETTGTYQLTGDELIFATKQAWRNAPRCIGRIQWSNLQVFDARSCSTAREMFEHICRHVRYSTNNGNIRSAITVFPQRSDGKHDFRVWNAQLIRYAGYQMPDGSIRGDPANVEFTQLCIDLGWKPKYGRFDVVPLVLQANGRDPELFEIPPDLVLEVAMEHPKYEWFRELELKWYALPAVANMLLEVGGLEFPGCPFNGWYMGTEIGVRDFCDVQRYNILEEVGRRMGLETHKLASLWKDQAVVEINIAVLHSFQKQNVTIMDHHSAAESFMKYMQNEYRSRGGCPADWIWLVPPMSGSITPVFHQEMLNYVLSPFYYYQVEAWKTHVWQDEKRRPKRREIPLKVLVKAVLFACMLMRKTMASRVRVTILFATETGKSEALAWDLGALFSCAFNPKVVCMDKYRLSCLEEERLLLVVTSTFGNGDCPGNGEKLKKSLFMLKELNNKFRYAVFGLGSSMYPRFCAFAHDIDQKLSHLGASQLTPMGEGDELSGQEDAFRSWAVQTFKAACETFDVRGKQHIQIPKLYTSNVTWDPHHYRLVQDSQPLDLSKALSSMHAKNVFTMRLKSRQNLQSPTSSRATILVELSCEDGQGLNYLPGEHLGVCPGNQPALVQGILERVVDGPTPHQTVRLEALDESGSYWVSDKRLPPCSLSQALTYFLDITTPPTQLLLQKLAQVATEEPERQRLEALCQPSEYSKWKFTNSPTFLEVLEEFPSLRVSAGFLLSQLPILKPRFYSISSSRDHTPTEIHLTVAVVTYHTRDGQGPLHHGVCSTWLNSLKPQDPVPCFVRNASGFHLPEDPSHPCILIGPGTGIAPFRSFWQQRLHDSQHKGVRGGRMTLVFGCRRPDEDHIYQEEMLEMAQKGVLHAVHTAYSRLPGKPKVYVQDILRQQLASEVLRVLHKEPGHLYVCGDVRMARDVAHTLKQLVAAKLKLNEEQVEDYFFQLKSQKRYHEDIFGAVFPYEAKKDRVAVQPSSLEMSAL

IC50 [nM]	SMILES
220	CN(C)CCCN(C)c1cc(Oc2ccc(-n3ccnc3)cc2)nc(Cc2ccc3c(c2)OCO3)n1
19	Cc1cc(Oc2ccc3c(c2)OCO3)nc(Oc2ccc(-n3ccnc3)cc2Cl)n1
92	Cc1cc(Oc2ccc3c(c2)OCO3)nc(Oc2ccc(-n3ccnc3)cc2F)n1
55	c1cn(-c2ccc(Oc3nccc(Oc4ccc5c(c4)OCO5)n3)cc2)cn1
74	c1cn(-c2ccc(Oc3ccnc(Oc4ccc5c(c4)OCO5)n3)cc2)cn1
90	Cc1cc(Oc2ccc3c(c2)OCO3)nc(Oc2ccc(-n3ccnc3)cc2)n1

Second part, the molecule before the results:

SMILES	IC50 [nM]
Cc1cnc(Oc2ccc(-n3ccnc3)cc2)nc1Oc1ccc2c(c1)OCO2	130
c1cn(-c2ccc(Oc3cc(N4CCOCC4)nc(Cc4ccc5c(c4)OCO5)n3)cc2)cn1	830
Clc1cc(Oc2ccc(-n3ccnc3)cc2)nc(Cc2ccc3c(c2)OCO3)n1	> 10000
Cc1c(F)c(Oc2ccc(-n3ccnc3)cc2)nc(Oc2ccc3c(c2)OCO3)c1F	450
c1cn(-c2ccc(Oc3cc(Oc4ccc5c(c4)OCO5)ncn3)cc2)cn1	> 10000
Cc1cc(Oc2ccc3c(c2)OCO3)nc(Oc2ccc(-n3ccnc3)cc2C(F)(F)F)n1	220
c1cc(Oc2ccc(-n3ccnc3)cc2)nc(Oc2ccc3c(c2)OCO3)c1	78
